In patent US7939657B2, “N-substituted benzene sulfonamides” (Elan Pharmaceuticals, Inc., priority 2003, dated 2011):

Test system: gamma secretase cleavage of NotchΔE (constitutively active rat Notch1 construct ZEDN1)
Test: Notch signaling assay for selective inhibitors of gamma secretase (4xwtCBF1 Luciferase reporter gene co-transfected with NotchΔE ZEDN1)
Format: cell-based
Settings: 'the above assay' (reporter gene based Notch signaling assay), ranges stated as 'from about'
Text: “A presenilin-1-dependent gamma-secretase-like protease mediates release of Notch intracellular domain.” Nature 398(6727): 518-22; Mumm, J. S., E. H. Schroeter, M. T. Saxena, A. Griesemer, X. Tian, D. J. Pan, W. J. Ray and R. Kopan (2000). “A ligand-induced extracellular cleavage regulates gamma-secretase-like proteolytic activation of Notch1.” Mol Cell 5(2): 197-206; Zhang, Z., P. Nadeau, W. Song, D. Donoviel, M. Yuan, A. Bernstein and B. A. Yankner (2000). “Presenilins are required for gamma-secretase cleavage of beta-APP and transmembrane cleavage of Notch-1.” Nat Cell Biol 2(7): 463-5). Cleavage of APP by gamma secretase leads to β-amyloid synthesis. Cleavage of Notch1 by gamma secretase results in release of the Notch intracellular domain (NICD), which translocates to the nucleus and activates gene expression (Jarriault, S., C. Brou, F. Logeat, E. H. Schroeter, R. Kopan and A. Israel (1995). “Signalling downstream of activated mammalian Notch.” Nature 377(6547): 355-8; Kopan, R., E. H. Schroeter, H. Weintraub and J. S. Nye (1996). “Signal transduction by activated Notch: importance of proteolytic processing and its regulation by the extracellular domain.” Proc Natl Acad Sci USA 93(4): 1683-8; Schroeter, E. H., J. A. Kisslinger and R. Kopan (1998). “Notch-1 signalling requires ligand-induced proteolytic release of intracellular domain.” Nature 393(6683): 382-6). In particular, Notch signaling activates transcription of the mammalian homolog of the Drosophila transcription factor hairy-enhancer of split (Hes). Transcriptional activation of Hes1 is mediated by de-repression of CBF1/RBPJk upon binding by NICD in the nucleus. These facts have been exploited to develop a reporter gene assay for Notch Signaling Hsieh, J. J., T. Henkel, P. Salmon, E. Robey, M. G. Peterson and S. D. Hayward (1996). “Truncated mammalian Notch1 activates CBF1/RBPJk-repressed genes by a mechanism resembling that of Epstein-Barr virus EBNA2.” Mol Cell Biol 16(3): 952-9; Lu, F. M. and S. E. Lux (1996). “Constitutively active human Notch1 binds to the transcription factor CBF1 and stimulates transcription through a promoter containing a CBF1-responsive element.” Proc Natl Acad Sci USA 93(11): 5663-7).
Due to the importance of Notch signaling in cell fate determination, and tissue differentiation during both development and in the adult, inhibition of Notch signaling by gamma secretase inhibitors is postulated to be a limiting factor in their therapeutic utility. […] “Notch signaling inhibits muscle cell differentiation through a CBF1-independent pathway.” Development 122(12): 3765-73 in combination with the CBF1 repressible Luciferase reporter gene 4xwtCBF1Luc (Hsieh, J. J., et al., (1996). Mol Cell Biol 16(3): 952-9).
When 4xwtCBF1 Luciferase is co-transfected with NotchΔE (ZEDN1), γ-secretase cleavage of NotchΔE releases the Notch intracellular domain (NICD), which translocates to the nucleus and de-represses CBF1mediated transcriptional repression, leading to transcription of the Luciferase reporter gene. Luciferase activity is easily assayed in cell extracts using commercially available kits. The activity of the reporter gene is directly correlated with gamma secretase cleavage of NotchΔE, and as such, a reduction in Luciferase activity provides a convenient measure of inhibition of gamma secretase cleavage of NotchΔE.

| IC50 [nM] | Structure (SMILES) |
| --- | --- |
| 100 to 1000 | O=C(CCCc1ccccc1)Nc1ccc(CN([C@@H]2CCCCNC2=O)S(=O)(=O)c2ccc(Cl)cc2)cc1F [Compound 505, N-[4-({[(4-chlorophenyl)sulfonyl][(3R)-2-oxoazepan-3-yl]amino}methyl)-2-fluorophenyl]-4-phenylbutanamide] |
| 0.1 to 25 | COC(=O)c1ccc(CN([C@@H]2CCCCNC2=O)S(=O)(=O)c2ccc(Cl)cc2)cc1 [Compound 275, methyl 4-({[(4-chlorophenyl)sulfonyl][(3R)-2-oxoazepan-3-yl]amino}methyl)benzoate] |
| > 1000 | O=C1NCCCC[C@H]1N(CCCOCc1ccccc1)S(=O)(=O)c1ccc(Cl)cc1 [Compound 89, N-[3-(benzyloxy)propyl]-4-chloro-N-[(3R)-2-oxoazepan-3-yl]benzenesulfonamide] |
| 0.1 to 25 | C[C@@H](NC(=O)c1ccc(CN([C@@H]2CCCCNC2=O)S(=O)(=O)c2ccc(Cl)cc2)cc1)c1ccccc1 [Compound 537, 4-({[(4-chlorophenyl)sulfonyl][(3R)-2-oxoazepan-3-yl]amino}methyl)-N-[(1R)-1-phenylethyl]benzamide] |
| 25 to 100 | O=C1NCCCC[C@H]1N(Cc1ccc2ccccc2c1)S(=O)(=O)c1ccc(Cl)cc1 [Compound 227, 4-chloro-N-(2-naphthylmethyl)-N-[(3R)-2-oxoazepan-3-yl]benzenesulfonamide] |
| > 1000 | O=C1NCCCC[C@H]1N(Cc1ccc(-c2nnc(-c3ccccc3)o2)cc1)S(=O)(=O)c1ccc(Cl)cc1 [Compound 672] |
| > 1000 | O=C1NCCCCC1N(Cc1cccn1S(=O)(=O)c1ccccc1)S(=O)(=O)c1ccc(Cl)cc1 (stereo not drawn) [Compound 206, N-(1-Benzenesulfonyl-1H-pyrrol-2-ylmethyl)-4-chloro-N-(2-oxo-azepan-3-yl)-benzenesulfonamide] |
| 100 to 1000 | O=C1NCCCCC1N(Cc1ccc(Br)s1)S(=O)(=O)c1ccc(Cl)cc1 (stereo not drawn) [Compound 160, N-(5-Bromo-thiophen-2-ylmethyl)-4-chloro-N-(2-oxo-azepan-3-yl)-benzenesulfonamide] |
| 25 to 100 | CC[C@@H](NC(=O)c1ccc(CN([C@@H]2CCCCNC2=O)S(=O)(=O)c2ccc(Cl)cc2)cc1)c1ccccc1 [Compound 553, 4-({[(4-chlorophenyl)sulfonyl][(3R)-2-oxoazepan-3-yl]amino}methyl)-N-[(1R)-1-phenylpropyl]benzamide] |
| 0.1 to 25 | CSc1ccc(CN(C2CCCCNC2=O)S(=O)(=O)c2ccc(Cl)cc2)cc1 (stereo not drawn) [Compound 269, 4-Chloro-N-(4-methylsulfanyl-benzyl)-N-(2-oxo-azepan-3-yl)-benzenesulfonamide] |

The next lines start with the compound.

| Structure (SMILES) | IC50 [nM] |
| --- | --- |
| CC(C)CNC(=O)c1ccc(CN([C@@H]2CCCCNC2=O)S(=O)(=O)c2ccc(Cl)cc2)cc1 [Compound 486, 4-({[(4-chlorophenyl)sulfonyl][(3R)-2-oxoazepan-3-yl]amino}methyl)-N-isobutylbenzamide] | 25 to 100 |
| O=C1NCCCC[C@H]1N(Cc1ccc(-c2nnn[nH]2)cc1)S(=O)(=O)c1ccc(Cl)cc1 [Compound 663] | 25 to 100 |
| O=C1c2ccccc2C(=O)C1CCCCN([C@@H]1CCCCNC1=O)S(=O)(=O)c1ccc(Cl)cc1 [Compound 108, 4-chloro-N-[4-(1,3-dioxo-2,3-dihydro-1H-inden-2-yl)butyl]-N-[(3R)-2-oxoazepan-3-yl]benzenesulfonamide] | 100 to 1000 |
| O=C(NCc1ccccc1OC(F)(F)F)c1ccc(CN([C@@H]2CCCCNC2=O)S(=O)(=O)c2ccc(Cl)cc2)cc1 [Compound 579, 4-({[(4-chlorophenyl)sulfonyl][(3R)-2-oxoazepan-3-yl]amino}methyl)-N-[2-(trifluoromethoxy)benzyl]benzamide] | 100 to 1000 |
| O=C1NCCCCC1N(Cc1ccc2c(c1)OCO2)S(=O)(=O)c1ccc(Cl)cc1 (stereo not drawn) [Compound 249, N-Benzo[1,3]dioxol-5-ylmethyl-4-chloro-N-(2-oxo-azepan-3-yl)-benzenesulfonamide] | 0.1 to 25 |
| O=C1NCCCC[C@H]1N(Cc1ccc(C(=O)N(Cc2cccnc2)Cc2cccnc2)cc1)S(=O)(=O)c1ccc(Cl)cc1 [Compound 613, 4-({[(4-chlorophenyl)sulfonyl][(3R)-2-oxoazepan-3-yl]amino}methyl)-N,N-bis(pyridin-3-ylmethyl)benzamide] | > 1000 |
| COc1ccc(CN(C2CCCCNC2=O)S(=O)(=O)c2ccc(C(C)(C)C)cc2)cc1OC (stereo not drawn) [Compound 14, 4-tert-Butyl-N-(3,4-dimethoxy-benzyl)-N-(2-oxo-azepan-3-yl)-benzenesulfonamide] | > 1000 |
| NC(=O)CN(C1CCCCNC1=O)S(=O)(=O)c1ccc(Cl)cc1 (stereo not drawn) [Compound 338, 2-[(4-Chloro-benzenesulfonyl)-(2-oxo-azepan-3-yl)-amino]-acetamide] | > 1000 |
| O=C(NCc1cccnc1)c1ccc(CN([C@@H]2CCCCNC2=O)S(=O)(=O)c2ccc(Cl)cc2)cc1 [Compound 593, 4-({[(4-chlorophenyl)sulfonyl][(3R)-2-oxoazepan-3-yl]amino}methyl)-N-(pyridin-3-ylmethyl)benzamide] | 0.1 to 25 |
| CCN(C(=O)c1ccc(CN([C@@H]2CCCCNC2=O)S(=O)(=O)c2ccc(Cl)cc2)cc1)C1CCCCC1 [Compound 609, 4-({[(4-chlorophenyl)sulfonyl][(3R)-2-oxoazepan-3-yl]amino}methyl)-N-cyclohexyl-N-ethylbenzamide] | 100 to 1000 |
| C=C(CC)CN(C1CCCCNC1=O)S(=O)(=O)c1ccc(Cl)cc1 (stereo not drawn) [Compound 66, 4-Chloro-N-(2-ethyl-allyl)-N-(2-oxo-azepan-3-yl)-benzenesulfonamide] | 100 to 1000 |
| O=C1NCC[C@H]1N(Cc1ccc(F)cc1F)S(=O)(=O)c1ccc(Cl)cc1 [Compound 148, 4-chloro-N-(2,4-difluorobenzyl)-N-[(3R)-2-oxopyrrolidin-3-yl]benzenesulfonamide] | > 1000 |
| CC(NC(=O)c1ccc(CN([C@@H]2CCCCNC2=O)S(=O)(=O)c2ccc(Cl)cc2)cc1)c1cccnc1 (stereo partly drawn) [Compound 636, 4-({[(4-chlorophenyl)sulfonyl][(3R)-2-oxoazepan-3-yl]amino}methyl)-N-(1-pyridin-3-ylethyl)benzamide] | 25 to 100 |
| O=C1NCCCC[C@H]1N(Cc1ccc2c(c1)OCCO2)S(=O)(=O)c1ccc(Cl)cc1 [Compound 77, 4-chloro-N-(2,3-dihydro-1,4-benzodioxin-6-ylmethyl)-N-[(3R)-2-oxoazepan-3-yl]benzenesulfonamide] | 0.1 to 25 |
